Consider one compound from paper PMC8760490, “Discovery of novel furanylbenzamide inhibitors that target oncogenic tyrosine phosphatase SHP2 in leukemia cells” (The Journal of Biological Chemistry, 2021).

One experiment addresses T1, SHP2cat (Homo sapiens, UniProt Q06124).
T1 construct: the SHP2 catalytic domain (SHP2cat; residues 248–527); made in house
T1 sequence (Q06124 248-527): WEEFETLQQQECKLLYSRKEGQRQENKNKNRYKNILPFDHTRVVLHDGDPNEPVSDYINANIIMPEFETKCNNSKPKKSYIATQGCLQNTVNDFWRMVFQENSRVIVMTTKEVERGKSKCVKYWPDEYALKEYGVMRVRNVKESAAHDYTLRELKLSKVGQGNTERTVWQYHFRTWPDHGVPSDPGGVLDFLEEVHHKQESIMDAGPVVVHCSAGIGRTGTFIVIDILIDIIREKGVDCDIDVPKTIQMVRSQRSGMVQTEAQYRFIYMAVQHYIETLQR
Description: Protein thermal shift (PTS) assay. Format: binding. The settings on record: dose response. The text has this: We confirmed specific and dose-dependent binding of inhibitors to SHP2 by PTS, which monitors the thermal stability of a target protein in vitro ([40]). […] In addition, we confirmed the inhibitory activity of several furanylbenzamide inhibitors, including the top two compounds SBI-2130 and SBI-4668, in SHP2cat inhibition assays using the alternative substrate 3-O-methylfluorescein phosphate (OMFP), which features a peak fluorescence emission that is red-shifted by ∼75 nm compared with DiFMUP. The Km value of OMFP for SHP2cat was determined to be 50 μM. An OMFP fluorescence intensity–based assay was used to perform inhibitor dose–response experiments and determine IC50 values.
Differential scanning fluorimetry (also known as protein thermal shift) measurements of SHP2cat were performed using optimized methods and conditions in accordance with those previously described ([36], [41], [49]). SBI-4668 was spotted at different concentrations into MicroAmp 384-well real-time PCR plates (catalog no.: 4483285; Applied Biosystems) using an Echo 555 Liquid Handler. […] Plates were analyzed using a ViiA 7 Real-Time PCR instrument (Applied Biosystems) and a 12 min temperature gradient with a temperature increase of 0.075 °C/s. The melting temperature and thermal profiles were determined as described previously using Protein Thermal Shift Software, version 1.3 (Applied Biosystems) ([36], [49]).

The test system of another experiment is MDA-MB-468 TNBC cells. Description: TNBC cell viability (CellTiter-Glo), MDA-MB-468. The settings on record: Homo sapiens, MDA-MB-468; 72 h per text; 5 days per legend and method. In kind it is cell-based. The protocol: Inhibition of SHP2 has been reported to inhibit the growth of cancer cells including Kasumi-1 acute myeloid leukemia (AML) and KYSE-520 esophageal cancer cells ([30]). […] Thus, we treated two TNBC cell lines, BT-549 and MDA-MB-468, with SBI-4668 or the SHP2 allosteric inhibitor SHP099 at various concentrations and determined cell viability after 72 h, compared with the vehicle control (Fig. 4C). […] Next, we performed an 11-day colony formation assay with TNBC cells treated with SBI-4668 or SHP099 at 5, 10, or 20 μM (Fig. 4D).
Triple-negative breast cancer cell viability was assessed using the ATP-depletion assay CellTiter-Glo. Briefly, 2500 cells in 25 μl media (RPMI + 10% FBS + 1× penicillin–streptomycin [Omega Scientific]) were seeded per well of a 384-well tissue culture–treated plate (Greiner). About 25 nl of 1000× test compound were added using a Labcyte Echo acoustic dispenser, and the cells were incubated for 5 days before addition of 10 μl of CellTiter-Glo reagent as described by the manufacturer. Luminescence was detected on a BioTek Synergy 2 microplate reader, and the values normalized to those of vehicle (DMSO)-treated controls before being plotted using GraphPad Prism.

Experiment [1] relates to U-937 AML cells (G60R oncogenic mutation in SHP2). Description: Cell viability (CellTiter-Glo), U-937. In kind it is cell-based. Conditions: Homo sapiens, U-937, 72 h, 3 days, 0.123 to 30 μM. The text has this: Oncogenic gain-of-function mutations in SHP2 drive leukemogenesis in a significant number of leukemia patients. However, because of their unique mechanism of action, the existing SHP2 allosteric inhibitors lack activity against the most common SHP2 oncogenic variants. Thus, we tested whether our inhibitors could inhibit the growth of leukemia cells expressing oncogenic SHP2 variants. […] Thus, we tested both SBI-4668 and RMC-4550 on U-937 AML cells, which harbor a G60R oncogenic mutation in SHP2. We treated cells with either SBI-4668 or RMC-4550 at various concentrations, ranging from 0.123 to 30 μM (Fig. 5A). […] We also assessed the effects of SBI-4668 and RMC-4550 on ERK1/2 activation in the SHP2 mutant U-937 cell line. […]
Viability of AML and esophageal carcinoma cells was assessed using the ATP-depletion assay CellTiter-Glo (Promega). Cells were harvested at 1 × 10^6/ml to 2 × 10^6 cells/ml with cell numbers determined by trypan blue using the Countess Cell counter (Thermo Scientific) and resuspended in culture media. […] Luminescence was read on a Tecan Spark Multimode Microplate Reader, and data were analyzed using GraphPad Prism software.
In general terms: Cellular ATP, detected with luciferase, serves as a proxy for viable cell number.

With `O=C(Nc1ccccc1)c1cc(-c2ccc(/C=C3\Sc4ccccc4C3=O)o2)ccc1O` [SBI-4668, (Z)-2-Hydroxy-5-(5-((3-oxobenzo[b]thiophen-2(3H)-ylidene)methyl)furan-2-yl)-N-phenylbenzamide], on SHP2cat, the “change of SHP2cat melting temperature (Tm) vs DMSO” value is listed as “dose-dependently increased the melting temperature”. Further, the IC50 (as a rule, the midpoint of a concentration-inhibition curve) in the experiment on MDA-MB-468 TNBC cells came out at 2.5 µM; in experiment [1] it was 6.3 µM.
